In ChEMBL document CHEMBL3046193, “Promising antitumor effect of alpha-tocopheryl succinate in human colon and liver cancer cells” (Med Chem Res, 2012):
The source made the active and inactive calls. No cut-off for these calls is given here.

Experiments:
HeLa [1] = experiment: Cytotoxicity against Homo sapiens (human) HeLa cells at 20 to 100 uM by SRB assay; assay type: functional, cell-based; details: TDE = time-dependent effect
HepG2 [2] = experiment: Cytotoxicity against Homo sapiens (human) HepG2 cells at 20 to 100 uM by SRB assay; assay type: functional, cell-based; details: TDE = time-dependent effect
HCT-116 [3] = experiment: Induction of cell cycle arrest in Homo sapiens (human) HCT116 cells assessed as increase in G0/G1 phase cells at 52.3 uM at 24 hr by flow cytometric analysis relative to control; assay type: functional
HepG2 [4] = experiment: Induction of cell cycle arrest in Homo sapiens (human) HepG2 cells assessed as G2/M phase cells at 55 uM at 48 hr by flow cytometric analysis (reference value: 4 +/- 0.9 cells); assay type: functional
HepG2 [5] = experiment: Induction of cell cycle arrest in Homo sapiens (human) HepG2 cells assessed as S phase cells at 55 uM at 48 hr by flow cytometric analysis (reference value: 46.4 +/- 3.6 cells); assay type: functional
HCT-116 [6] = experiment: Induction of apoptosis in Homo sapiens (human) HCT116 cells assessed as caspase9 cleavage at 52.3 uM at 16 hr by Western blot analysis; assay type: functional, cell-based
HeLa [7] = experiment: Cytotoxicity against Homo sapiens (human) HeLa cells after 24 to 72 hr by SRB assay; assay type: functional, cell-based
HCT-116 [8] = experiment: Antiangiogenic activity against Homo sapiens (human) HCT116 cells assessed as reduction in VEGF level at 52.3 uM after 24 hr by ELISA relative to control; assay type: functional; design: scale not given: the % may be the effect or the level left
HepG2 [9] = experiment: Cytotoxicity against Homo sapiens (human) HepG2 cells at 100 uM after 24 hr by SRB assay; assay type: functional
HepG2 [10] = experiment: Induction of cell cycle arrest in Homo sapiens (human) HepG2 cells assessed as G2/M phase cells at 55 uM at 16 hr by flow cytometric analysis (reference value: 4 +/- 0.9 cells); assay type: functional
HepG2 [11] = experiment: Cytotoxicity against Homo sapiens (human) HepG2 cells after 24 to 72 hr by SRB assay; assay type: functional, cell-based
HepG2 [12] = experiment: Cytotoxicity against Homo sapiens (human) HepG2 cells assessed as DNA fragmentation at 55 uM from 24 to 48 hr by agarose gel electrophoresis; assay type: functional, cell-based
MCF7 [13] = experiment: Cytotoxicity against Homo sapiens (human) MCF7 cells at 20 to 100 uM by SRB assay; assay type: functional, cell-based; details: TDE = time-dependent effect
HepG2 [14] = experiment: Induction of apoptosis in Homo sapiens (human) HepG2 cells assessed as caspase9 cleavage at 55 uM at 16 hr by Western blot analysis; assay type: functional, cell-based
HCT-116 [15] = experiment: Induction of cell cycle arrest in Homo sapiens (human) HCT116 cells assessed as S phase cells at 52.3 uM at 16 hr by flow cytometric analysis (reference value: 33.6 +/- 0.6 cells); assay type: functional
HepG2 [16] = experiment: Cytotoxicity against Homo sapiens (human) HepG2 cells after 48 hr by SRB assay; assay type: functional, cell-based; details: HepG2, 48 h
HCT-116 [17] = experiment: Induction of cell cycle arrest in Homo sapiens (human) HCT116 cells assessed as increase in G0/G1 phase cells at 52.3 uM at 48 hr by flow cytometric analysis relative to control; assay type: functional
MCF7 [18] = experiment: Cytotoxicity against Homo sapiens (human) MCF7 cells at 40 uM after 48 hr by SRB assay; assay type: functional
HCT-116 [19] = experiment: Cytotoxicity against Homo sapiens (human) HCT116 cells after 24 to 72 hr by SRB assay; assay type: functional, cell-based
HepG2 [20] = experiment: Induction of cell cycle arrest in Homo sapiens (human) HepG2 cells assessed as G2/M phase cells at 55 uM at 24 hr by flow cytometric analysis (reference value: 4 +/- 0.9 cells); assay type: functional
HCT-116 [21] = experiment: Induction of cell cycle arrest in Homo sapiens (human) HCT116 cells assessed as G2/M phase cells at 52.3 uM at 24 hr by flow cytometric analysis (reference value: 9.7 +/- 0.8 cells); assay type: functional
HepG2 [22] = experiment: Induction of cell cycle arrest in Homo sapiens (human) HepG2 cells assessed as G0/G1 phase cells at 55 uM at 16 hr by flow cytometric analysis (reference value: 50.4 +/- 1.7 cells); assay type: functional
HepG2 [23] = experiment: Induction of apoptosis in Homo sapiens (human) HepG2 cells assessed as effect on Bcl2 level at 55 uM from 3 to 24 hr by Western blot analysis; assay type: functional, cell-based
HCT-116 [24] = experiment: Induction of apoptosis in Homo sapiens (human) HCT116 cells assessed as effect on Bcl2 level at 52.3 uM from 3 to 24 hr by Western blot analysis; assay type: functional, cell-based
HCT-116 [25] = experiment: Induction of cell cycle arrest in Homo sapiens (human) HCT116 cells assessed as G2/M phase cells at 52.3 uM at 16 hr by flow cytometric analysis (reference value: 9.7 +/- 0.8 cells); assay type: functional
HCT-116 [26] = experiment: Cytotoxicity against Homo sapiens (human) HCT116 cells at 20 to 100 uM by SRB assay; assay type: functional, cell-based; details: TDE = time-dependent effect
HepG2 [27] = experiment: Cytotoxicity against Homo sapiens (human) HepG2 cells at 40 uM after 72 hr by SRB assay; assay type: functional
HepG2 [28] = experiment: Antiangiogenic activity against Homo sapiens (human) HepG2 cells assessed as reduction in VEGF level at 55 uM from 24 to 48 hr by ELISA relative to control; assay type: functional, cell-based
HCT-116 [29] = experiment: Antiangiogenic activity against Homo sapiens (human) HCT116 cells assessed as reduction in VEGF level at 52.3 uM after 48 hr by ELISA relative to control; assay type: functional; design: scale not given: the % may be the effect or the level left
MCF7 [30] = experiment: Cytotoxicity against Homo sapiens (human) MCF7 cells at 20 uM after 72 hr by SRB assay; assay type: functional, cell-based
HCT-116 [31] = experiment: Cytotoxicity against Homo sapiens (human) HCT116 cells at 100 uM after 24 hr by SRB assay; assay type: functional
MCF7 [32] = experiment: Cytotoxicity against Homo sapiens (human) MCF7 cells after 24 to 72 hr by SRB assay; assay type: functional, cell-based
HepG2 [33] = experiment: Induction of cell cycle arrest in Homo sapiens (human) HepG2 cells assessed as S phase cells at 55 uM at 16 hr by flow cytometric analysis (reference value: 46.4 +/- 3.6 cells); assay type: functional
HeLa [34] = experiment: Cytotoxicity against Homo sapiens (human) HeLa cells at 40 uM after 72 hr by SRB assay; assay type: functional
HCT-116 [35] = experiment: Cytotoxicity against Homo sapiens (human) HCT116 cells after 48 hr by SRB assay; assay type: functional, cell-based; details: HCT-116, 48 h
HepG2 [36] = experiment: Induction of cell cycle arrest in Homo sapiens (human) HepG2 cells assessed as increase in G0/G1 phase cells at 55 uM at 24 hr by flow cytometric analysis relative to control; assay type: functional
HCT-116 [37] = experiment: Induction of cell cycle arrest in Homo sapiens (human) HCT116 cells assessed as G2/M phase cells at 52.3 uM at 48 hr by flow cytometric analysis (reference value: 9.7 +/- 0.8 cells); assay type: functional
HCT-116 [38] = experiment: Cytotoxicity against Homo sapiens (human) HCT116 cells assessed as DNA fragmentation at […] after 48 hr by agarose gel electrophoresis; assay type: functional, cell-based
HCT-116 [39] = experiment: Cytotoxicity against Homo sapiens (human) HCT116 cells at 40 uM after 72 hr by SRB assay; assay type: functional
HCT-116 [40] = experiment: Cytotoxicity against Homo sapiens (human) HCT116 cells at 20 uM after 72 hr by SRB assay; assay type: functional, cell-based
HCT-116 [41] = experiment: Induction of cell cycle arrest in Homo sapiens (human) HCT116 cells assessed as S phase cells at 52.3 uM at 24 hr by flow cytometric analysis (reference value: 33.6 +/- 0.6 cells); assay type: functional
HCT-116 [42] = experiment: Induction of cell cycle arrest in Homo sapiens (human) HCT116 cells assessed as S phase cells at 52.3 uM at 48 hr by flow cytometric analysis (reference value: 33.6 +/- 0.6 cells); assay type: functional
HeLa [43] = experiment: Cytotoxicity against Homo sapiens (human) HeLa cells at 20 uM after 72 hr by SRB assay; assay type: functional, cell-based
HepG2 [44] = experiment: Cytotoxicity against Homo sapiens (human) HepG2 cells at 20 uM after 72 hr by SRB assay; assay type: functional, cell-based
HepG2 [45] = experiment: Induction of cell cycle arrest in Homo sapiens (human) HepG2 cells assessed as increase in G0/G1 phase cells at 55 uM at 48 hr by flow cytometric analysis relative to control; assay type: functional
HepG2 [46] = experiment: Induction of cell cycle arrest in Homo sapiens (human) HepG2 cells assessed as S phase cells at 55 uM at 24 hr by flow cytometric analysis (reference value: 46.4 +/- 3.6 cells); assay type: functional
MCF7 [47] = experiment: Cytotoxicity against Homo sapiens (human) MCF7 cells at 100 uM after 24 hr by SRB assay; assay type: functional
HeLa [48] = experiment: Cytotoxicity against Homo sapiens (human) HeLa cells at 100 uM after 24 hr by SRB assay; assay type: functional
HCT-116 [49] = experiment: Induction of cell cycle arrest in Homo sapiens (human) HCT116 cells assessed as G0/G1 phase cells at 52.3 uM at 16 hr by flow cytometric analysis (reference value: 58.2 +/- 3.7 cells); assay type: functional

SMILES: Cc1c(C)c2c(c(C)c1OC(=O)CCC(=O)O)CC[C@@](C)(CCC[C@H](C)CCC[C@H](C)CCCC(C)C)O2 [(+)-ALPHA-TOCOPHERYL SUCCINATE]
- Activity (HeLa [1]): tde
- Activity (HepG2 [2]): tde
- Activity (HCT-116 [3]): 32.3%
- Activity (HepG2 [4]): 1.8%
- Activity (HepG2 [5]): 15.4%
- Activity (HCT-116 [6]): Active
- Activity (HeLa [7]): Dose-dependent effect
- Activity (HCT-116 [8]): 39%
- Activity (HepG2 [9]): 55%
- Activity (HepG2 [10]): 2.9%
- Activity (HepG2 [11]): Dose-dependent effect
- Activity (HepG2 [12]): Active
- Activity (MCF7 [13]): tde
- Activity (HepG2 [14]): Active
- Activity (HCT-116 [15]): 32.7%
- IC50 (HepG2 [16]): 55 µM
- Activity (HCT-116 [17]): 47.3%
- Activity (MCF7 [18]): 14%
- Activity (HCT-116 [19]): Dose-dependent effect
- Activity (HepG2 [20]): 2.1%
- Activity (HCT-116 [21]): 4.4%
- Activity (HepG2 [22]): 60%
- Activity (HepG2 [23]): inactive
- Activity (HCT-116 [24]): inactive
- Activity (HCT-116 [25]): 9.5%
- Activity (HCT-116 [26]): tde
- Activity (HepG2 [27]): 15%
- Activity (HepG2 [28]): Active
- Activity (HCT-116 [29]): 54%
- Activity (MCF7 [30]): inactive
- Activity (HCT-116 [31]): 47%
- Activity (MCF7 [32]): Dose-dependent effect
- Activity (HepG2 [33]): 38.4%
- Activity (HeLa [34]): 20%
- IC50 (HCT-116 [35]): 52.3 µM
- Activity (HepG2 [36]): 27.4%
- Activity (HCT-116 [37]): 2.7%
- Activity (HCT-116 [38]): Active
- Activity (HCT-116 [39]): 48%
- Activity (HCT-116 [40]): inactive
- Activity (HCT-116 [41]): 19.9%
- Activity (HCT-116 [42]): 13.4%
- Activity (HeLa [43]): inactive
- Activity (HepG2 [44]): inactive
- Activity (HepG2 [45]): 62.1%
- Activity (HepG2 [46]): 33.01%
- Activity (MCF7 [47]): 45%
- Activity (HeLa [48]): 65%
- Activity (HCT-116 [49]): 58.7%
